{"source": "paper PMC10052609", "about": "“Cholinesterase Inhibitors from an Endophytic Fungus Aspergillus niveus Fv-er401: Metabolomics, Isolation and Molecular Docking” (Molecules, 2023)", "key": {"BuChE": {"biological_target": "BuChE (Homo sapiens, UniProt P06276)", "sequence (P06276 29-602)": "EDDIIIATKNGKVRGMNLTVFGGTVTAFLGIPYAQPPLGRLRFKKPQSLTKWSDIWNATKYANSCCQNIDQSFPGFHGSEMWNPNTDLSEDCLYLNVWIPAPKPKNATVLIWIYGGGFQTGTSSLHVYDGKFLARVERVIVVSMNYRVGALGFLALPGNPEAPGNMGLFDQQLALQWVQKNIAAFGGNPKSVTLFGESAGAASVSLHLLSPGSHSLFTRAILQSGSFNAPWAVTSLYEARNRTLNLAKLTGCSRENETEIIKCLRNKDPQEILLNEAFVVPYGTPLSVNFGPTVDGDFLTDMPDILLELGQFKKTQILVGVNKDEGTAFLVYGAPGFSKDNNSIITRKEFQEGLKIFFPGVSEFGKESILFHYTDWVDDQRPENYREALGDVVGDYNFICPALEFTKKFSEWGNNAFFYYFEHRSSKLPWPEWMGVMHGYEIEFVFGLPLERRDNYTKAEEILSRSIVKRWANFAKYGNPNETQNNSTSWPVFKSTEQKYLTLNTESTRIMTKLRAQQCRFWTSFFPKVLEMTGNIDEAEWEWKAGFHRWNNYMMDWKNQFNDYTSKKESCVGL", "assay": "Butyrylcholinesterase inhibitory activity (Ellman's method)", "assay_type": "biochemical", "conditions": "butyrylthiocholine iodide substrate, 25 °C, read at 405 nm", "experimental": "(§1) In total, 170 μL of Tris–HCl buffer (200 mM, pH 7.5) was added, then 20 μL of the tested compounds at different concentrations ([…]), and finally 20 μL of the enzyme solution (0.1 U mL1). […] In BChE and AChE assays, butyrylthiocholine iodide and acetylthiocholine were used as substrates, and DTNB was used as an indicator. MeOH was used to dissolve the tested samples. […] Blank tests were performed by replacing the enzyme (20 μL) with buffer and recording the absorbances.\n(§2) Percentage inhibition was calculated as follows: %Inhibition=Reading B−Reading A/Reading B×100"}, "[1]": {"tested_on": "glutamate-induced excitotoxicity", "conditions": "low doses; cited from earlier work"}, "AChE": {"biological_target": "AChE (Homo sapiens, UniProt P22303)", "sequence (P22303 32-614)": "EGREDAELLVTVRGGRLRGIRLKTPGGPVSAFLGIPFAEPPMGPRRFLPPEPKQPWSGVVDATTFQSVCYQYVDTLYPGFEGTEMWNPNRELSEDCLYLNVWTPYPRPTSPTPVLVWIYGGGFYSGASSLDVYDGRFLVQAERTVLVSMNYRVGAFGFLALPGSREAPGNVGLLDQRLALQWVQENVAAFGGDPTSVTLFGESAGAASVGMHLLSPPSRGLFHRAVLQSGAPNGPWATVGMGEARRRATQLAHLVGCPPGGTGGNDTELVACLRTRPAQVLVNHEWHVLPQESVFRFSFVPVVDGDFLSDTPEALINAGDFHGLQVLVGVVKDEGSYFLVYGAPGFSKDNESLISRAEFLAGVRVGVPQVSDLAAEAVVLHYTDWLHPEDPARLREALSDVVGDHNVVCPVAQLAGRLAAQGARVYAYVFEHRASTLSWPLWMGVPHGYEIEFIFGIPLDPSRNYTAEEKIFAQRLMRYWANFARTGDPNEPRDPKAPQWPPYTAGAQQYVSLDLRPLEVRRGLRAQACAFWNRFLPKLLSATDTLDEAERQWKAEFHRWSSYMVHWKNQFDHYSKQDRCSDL", "assay": "Acetylcholinesterase inhibitory activity (Ellman's method)", "assay_type": "biochemical", "conditions": "acetylthiocholine substrate, 25 °C, read at 405 nm", "experimental": "as §1, §2"}, "MCF-7": {"tested_on": "MCF-7", "conditions": "MCF-7 cell line; read-out: Cytotoxic activity IC50; cited from earlier work"}, "MIA Pa Ca-2": {"tested_on": "MIA Pa Ca-2", "conditions": "MIA Pa Ca-2 cell line; read-out: Cytotoxic activity IC50; cited from earlier work"}, "NCI-H460": {"tested_on": "NCI-H460", "conditions": "NCI-H460 cell line; read-out: Cytotoxic activity IC50; cited from earlier work"}, "SF-268": {"tested_on": "SF-268", "conditions": "SF-268 cell line; read-out: Cytotoxic activity IC50; cited from earlier work"}}, "note": "“And” between values parts separate entries of the source, which are not always exact repeats. Equal entries are not always repeated. Where two headings read alike, the source gives them in different places."}
{"smiles": "CC1=C2C(=CO[C@H](C)[C@H]2C)C(O)=C(C(=O)O)C1=O", "note": "[Citrinin]", "values": [{"measurement": "IC50", "setting": "BuChE; Butyryl Choline Esterase IC50, Ellman's method", "value": "32 µM and 30.1 µM"}, {"measurement": "Neuroprotective activity against glutamate-induced excitotoxicity", "setting": "[1]", "value": "potential neuroprotective activity"}, {"measurement": "IC50", "setting": "AChE; Acetylcholine Esterase IC50, Ellman's method", "value": 20.2, "unit": "µM"}]}
{"smiles": "C=CC(C)(C)c1[nH]c2ccccc2c1C1=C(O)C(=O)C(c2c[nH]c3ccccc23)=C(CC=C(C)C)C1=O", "note": "[Terrequinone A]", "values": [{"measurement": "IC50", "setting": "BuChE; Ellman's method, read-out: Butyryl Choline Esterase IC50 (converted)", "value": 31.9, "unit": "µM"}, {"measurement": "IC50", "setting": "MCF-7", "value": 6.8, "unit": "µM"}, {"measurement": "IC50", "setting": "MIA Pa Ca-2", "value": 5.4, "unit": "µM"}, {"measurement": "IC50", "setting": "NCI-H460", "value": 5.6, "unit": "µM"}, {"measurement": "IC50", "setting": "AChE; Ellman's method, read-out: Acetylcholine Esterase IC50 (converted)", "value": 22.6, "unit": "µM"}, {"measurement": "IC50", "setting": "SF-268", "value": 13.9, "unit": "µM"}]}
